Results reported in patent publication US20110124626A1, “BENZAZEPINE DERIVATIVES AND THEIR USE AS HISTAMINE H3 ANTAGONISTS” (TAKEDA PHARMACEUTICAL COMPANY LIMITED, priority 2008, published 2011).

Molecular target: T1, human H3 receptor (Homo sapiens, UniProt Q9Y5N1)
T1 construct: expressed in transfected cells
Assay: In vitro H3 binding assay (3H-N-α-methyl-histamine competition binding)
Settings: membranes of CHO-K1 cells expressing human H3 receptor; 2 nM 3H-NαMH; read-out: hH3 binding IC50
Experimental: The ability of compounds to bind to the H3 receptor was determined by measuring the reduction in tritiated N-α-methyl-histamine (^3H—NαMH) binding in a competition binding assay. Changes in the levels of bound radio-label were monitored by scintillation counting with a Trilux Microbeta (Perkin Elmer).
Membranes were prepared from CHO-K1 cells stably expressing human H3 receptor; routinely grown as monolayers in Ham's F12 medium (Invitrogen) supplemented with 10% Foetal Clone 111 (Hyclone), 500 μg/ml G418 (Invitrogen), 5 μg/ml blasticidine S (Invivogen) and […] Gentamicin (Sigma) in 5% CO2 at 37° C. Cells were grown to 80-95% confluency, rinsed once with 1×PBS (Invitrogen) and detached by incubating with 1×PBS containing 0.02% EDTA (Sigma) for 10 minutes at room temperature. Cells were collected by centrifugation at 900×g, 4° C. for 10 minutes. Cells were rinsed once with 1×PBS and re-suspended in ice cold homogenisation buffer (50 mM Tris-HCl (pH 7.4), 2.5 mM EDTA, 5 mM MgCl2, 200 mM Sucrose) at 1×10^7 cells/ml and kept on ice. Cells were homogenised on ice and debris removed by centrifugation at 500×g, 4° C. for 5 minutes. The resulting supernatant was centrifuged at 75,600×g, 4° C. for 60 minutes. Membranes were suspended in homogenisation buffer, protein concentration was determined (BCA Protein Assay kit (Pierce)), diluted to 2.2 mg/ml, dispensed into 1 ml aliquots and stored at −80° C.
Membranes were thawed on ice, sonicated with 4 cycles of 20 pulses (50% amplitude, 0.5 pulse) (UP200S Hielscher) on ice, diluted in assay buffer (50 mM Tris-HCl (pH7.4), 5 mM MgCl2) to 62.5 μg/ml. Compound was serially diluted in DMSO before being diluted 1:10 with assay buffer. 5 μg of membrane in 80 μl of assay buffer was added per well of a 96 well polystyrene plate (Corning). […] of compound was added per well. The assay was initiated by the addition of 10 μl of 20 nM ^3H—NαMH per well and incubated for one hour at room temperature with shaking. Total binding was determined in the presence of 1% DMSO and non-specific binding was determined by the inclusion of 1 μM R-α-methyl-histamine (RαMH). Incubations were then filtered through filtermat A (Perkin Elmer) and washed three times with assay buffer. Filtermats were dried at 42° C. for two hours, scintillant added and the level of bound radioactivity determined.
IC50 values for compounds were determined from seven point log scale dose-response studies and represent the concentration of compound required to inhibit 50% of the specific binding of 2 nM ^3H—NαMH (difference between total and non-specific binding). Curves were generated using the average of duplicate wells for each data point and analyzed using nonlinear regression of sigmoidal dose response (variable slope).

T1 sequence (Q9Y5N1 whole entry): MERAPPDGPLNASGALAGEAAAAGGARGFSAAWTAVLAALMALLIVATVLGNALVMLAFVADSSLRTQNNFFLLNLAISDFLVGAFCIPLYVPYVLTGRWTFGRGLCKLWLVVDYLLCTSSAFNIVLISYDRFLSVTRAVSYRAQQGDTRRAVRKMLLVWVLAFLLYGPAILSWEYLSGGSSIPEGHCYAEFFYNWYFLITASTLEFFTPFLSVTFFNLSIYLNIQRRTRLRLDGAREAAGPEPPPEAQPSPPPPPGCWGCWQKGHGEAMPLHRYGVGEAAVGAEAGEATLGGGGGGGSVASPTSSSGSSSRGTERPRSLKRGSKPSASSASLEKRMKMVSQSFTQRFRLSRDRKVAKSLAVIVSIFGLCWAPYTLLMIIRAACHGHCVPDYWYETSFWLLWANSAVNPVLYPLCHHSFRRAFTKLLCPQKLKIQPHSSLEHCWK

SMILES	IC50 [nM]
O=C(NCc1cccs1)c1ccc2c(c1)CCN(C1CCC1)CC2 [Example 87, 3-Cyclobutyl-N-(thiophen-2-ylmethyl)-2,3,4,5-tetrahydro-1H-benzo[d]azepine-7-carboxamide]	4
O=C(NCc1ccc2c(c1)CCN(C1CCC1)CC2)c1ccc(NCC2CC2)nc1 [Example 280, N-[(3-cyclobutyl-2,3,4,5-tetrahydro-1H-3-benzazepin-7-yl)methyl]-6-[(cyclopropylmethyl)amino]pyridine-3-carboxamide]	0.3
CCn1cc(CNC(=O)c2ccc3c(c2)CCN(C2CCC2)CC3)c(C)n1 [Example 99, 3-Cyclobutyl-N-((1-ethyl-3-methyl-1H-pyrazol-4-yl)methyl)-2,3,4,5-tetrahydro-1H-benzo[d]azepine-7-carboxamide]	18
COc1ccc(NC(=O)Cc2ccc3c(c2)CCN(C2CCC2)CC3)cn1 [Example 274, 2-(3-cyclobutyl-2,3,4,5-tetrahydro-1H-benzo[d]azepin-7-yl)-N-(6-methoxypyridin-3-yl)acetamide]	9
O/N=C(\CCc1ccccc1)c1ccc2c(c1)CCN(C1CCC1)CC2 [Example 132, 1-(3-cyclobutyl-2,3,4,5-tetrahydro-1H-benzo[d]azepin-7-yl)-3-phenylpropan-1-one oxime]	6
COCC(C)(C)Oc1ccc(C(=O)NCc2ccc3c(c2)CCN(C2CCC2)CC3)cn1 [Example 315, N-[(3-cyclobutyl-2,3,4,5-tetrahydro-1H-3-benzazepin-7-yl)methyl]-6-[(1-methoxy-2-methylpropan-2-yl)oxy]pyridine-3-carboxamide]	2
Cn1nccc1CCC(O)c1ccc2c(c1)CCN(C1CCC1)CC2 (stereo not drawn) [Example 137, 1-(3-cyclobutyl-2,3,4,5-tetrahydro-1H-benzo[d]azepin-7-yl)-3-(1-methyl-1H-pyrazol-5-yl)propan-1-ol]	26
Cc1oc(-c2ccccc2)nc1CNC(=O)c1ccc2c(c1)CCN(C1CCC1)CC2 [Example 85, 3-Cyclobutyl-N-((5-methyl-2-phenyloxazol-4-yl)methyl)-2,3,4,5-tetrahydro-1H-benzo[d]azepine-7-carboxamide]	14
C[C@H](O)CNc1ccc(C(=O)NCc2ccc3c(c2)CCN(C2CCC2)CC3)cn1 [Example 290, (S)—N-((3-cyclobutyl-2,3,4,5-tetrahydro-1H-benzo[d]azepin-7-yl)methyl)-6-(2-hydroxypropylamino)nicotinamide]	3
O=C(NCc1ccc(Cl)cc1)c1ccc2c(c1)CCN(C1CCC1)CC2 [Example 67, N-(4-Chlorobenzyl)-3-cyclobutyl-2,3,4,5-tetrahydro-1H-benzo[d]azepine-7-carboxamide]	11
O=C(NCc1ccc2c(c1)CCN(C1CCC1)CC2)c1ccc(NC2CCOC2)nc1 (stereo not drawn) [Example 282, N-[(3-cyclobutyl-2,3,4,5-tetrahydro-1H-3-benzazepin-7-yl)methyl]-6-(tetrahydrofuran-3-ylamino)pyridine-3-carboxamide]	1
Cc1nn(C)cc1CNC(=O)c1ccc2c(c1)CCN(C1CCC1)CC2 [Example 98, 3-Cyclobutyl-N-((1,3-dimethyl-1H-pyrazol-4-yl)methyl)-2,3,4,5-tetrahydro-1H-benzo[d]azepine-7-carboxamide]	15
O=C(NCc1ccccn1)c1ccc2c(c1)CCN(C1CCC1)CC2 [Example 45, 3-Cyclobutyl-N-(pyridin-2-ylmethyl)-2,3,4,5-tetrahydro-1H-benzo[d]azepine-7-carboxamide]	13
O=C(NCc1ccc2c(c1)CCN(C1CCC1)CC2)c1cccnc1 [Example 120, N-((3-cyclobutyl-2,3,4,5-tetrahydro-1H-benzo[d]azepin-7-yl)methyl)nicotinamide]	1
O=C(C1CCC1)N1CCC(O)(Cc2ccc3c(c2)CCN(C2CCC2)CC3)CC1 [Example 155, cyclobutyl(4-((3-cyclobutyl-2,3,4,5-tetrahydro-1H-benzo[d]azepin-7-yl)methyl)-4-hydroxypiperidin-1-yl)methanone]	24

Continued by falling IC50, values first:

IC50 [nM]	SMILES
30	CO/N=C(\CCc1ccccc1)c1ccc2c(c1)CCN(C1CCC1)CC2 [Example 131, 1-(3-cyclobutyl-2,3,4,5-tetrahydro-1H-benzo[d]azepin-7-yl)-3-phenylpropan-1-one O-methyl oxime]
29	Cc1nc(CNC(=O)c2ccc3c(c2)CCN(C2CCC2)CC3)c(C)o1 [Example 93, 3-cyclobutyl-N-((2,5-dimethyloxazol-4-yl)methyl)-2,3,4,5-tetrahydro-1H-benzo[d]azepine-7-carboxamide]
18	Cn1ncc(Cl)c1CNC(=O)c1ccc2c(c1)CCN(C1CCC1)CC2 [Example 102, N-((4-chloro-1-methyl-1H-pyrazol-5-yl)methyl)-3-cyclobutyl-2,3,4,5-tetrahydro-1H-benzo[d]azepine-7-carboxamide]
18	O=C(NCc1ccoc1)c1ccc2c(c1)CCN(C1CCC1)CC2 [Example 89, 3-Cyclobutyl-N-(furan-3-ylmethyl)-2,3,4,5-tetrahydro-1H-benzo[d]azepine-7-carboxamide]
10	O=C(NCc1ccccc1Br)c1ccc2c(c1)CCN(C1CCC1)CC2 [Example 54, N-(2-Bromobenzyl)-3-cyclobutyl-2,3,4,5-tetrahydro-1H-benzo[d]azepine-7-carboxamide]
7	COc1nc(C)c(C(=O)NCc2ccc3c(c2)CCN(C2CCC2)CC3)s1 [Example 275, N-((3-cyclobutyl-2,3,4,5-tetrahydro-1H-benzo[d]azepin-7-yl)methyl)-2-methoxy-4-methylthiazole-5-carboxamide]
6	Cc1cc(CNC(=O)c2ccc3c(c2)CCN(C2CCC2)CC3)c(C)o1 [Example 91, 3-cyclobutyl-N-((2,5-dimethylfuran-3-yl)methyl)-2,3,4,5-tetrahydro-1H-benzo[d]azepine-7-carboxamide]
2.5	O=C(NCc1ccc2c(c1)CCN(C1CCOC1)CC2)c1ccc(N2CCCC2)nc1 (stereo not drawn) [Example 269, 6-(pyrrolidin-1-yl)-N-((3-(tetrahydrofuran-3-yl)-2,3,4,5-tetrahydro-1H-benzo[d]azepin-7-yl)methyl)nicotinamide]
0.8	O=C(NCc1ccc2c(c1)CCN(C1CCC1)CC2)c1ccc(O[C@H]2CCOC2)nc1 [Example 281, N-[(3-cyclobutyl-2,3,4,5-tetrahydro-1H-3-benzazepin-7-yl)methyl]-6-[(3S)-tetrahydrofuran-3-yloxy]pyridine-3-carboxamide]
